As a reminder, the IC50 is the concentration needed to halve the response being measured. High values mean a need for much substance, low ones inhibition by little substance.

Data set [1] is described as follows: Measured log P, octanol/water. The format is physicochemical. Particulars: octanol/water system; read-out: measured Log P (mLog P). The method, then:
Log P values of temozolomide (1) and the temozolomide esters were calculated using TSAR (Oxford Molecular, Oxford, UK), Molecular Modeling Pro (ChemSW, Fairfield, Calif.) and Chem Office 7.0 (CambridgeSoft, Cambridge, UK) programmes. Calculated Log P values were verified for temozolomide and the temozolomide hexyl ester by measuring the octanol/water coefficient (Table 4).

The subject of another data set is M14 (human melanoma). Kind of data set: In vitro tumour cell growth inhibition (MTT), M14. Format: cell-based. Particulars: Homo sapiens, Table 2 experiment, 96 h. The protocol:
(§1) Temozolomide (white powder), temozolomide acid (white powder) and temozolomide-8-carboxylate hexyl (white scale crystal) were made in house. For the estimation of in vitro tumour cell growth inhibition, MV3 (human melanoma), M14 (human melanoma), B16 and B16-BL6 (mouse melanoma), SHG-44, TJ899 and TJ905 (human glioma), MCF-7 (human breast), HCT-8 (human colon), A549 (human non small lung), Bel7402 (human hepatocellulor), and BGC-823 (human stomach) were used. All tumour cells were cultured in RPMI-1640 medium supplemented with 10% fetal bovine serum (FBS) at 37° C. in a humidified 5% CO2 incubator.
(§2) After being harvested from culture flasks, a cell suspension of 1×10^4/ml was made by using 1640 RPMI medium supplemented with 10% fetal bovine serum. 100 μl (contains 1000 tumour cells) of the cell suspension was seeded per well of 96-well flat-bottom Costar culture plates at 37° C. in a humidified 5% CO2 incubator for 24 hrs before introducing drugs. Each tested compounds was made for five different concentrations and 100 μl of the each concentration was introduced into parallel three wells; control wells were added with 100 μl of plain medium alone; fluorouracil (a chemotherapeutic antitumour drug) was used as the positive control. Cells were then incubated for 96 h. Proliferative response and cell death were determined using MTT (3-(4,5-dimethylthiazolyl)-2,5-diphenyl-tetrazolium bromide) assay.
(§3) MTT assay: Following incubation of cells with the tested compounds for 96 h, 100 μl of 0.4 mg/ml MTT in RPMI 1640 was added to each well and the plate was incubated at 37° C. for 4 h. The plate was then centrifuged and followed by removal of medium. 150 μl of DMSO was then added to dissolve formazan crystal. DMSO-added plates were placed on a plate shaker for 5 min and absorbance was measured spectrophotometrically at 540 nm (with reference wavelength at 450 nm) using a Benchmark microtiter plate reader (Bio-Rad 550, Bio-Rad Laboratories, CA, U.S.A.).
The IC50 was calculated from the curve of the tested compound concentrations against the inhibition rate of the tumour cells. Table 1 summarized the experiment results by using six human cancer cell lines, HCT-8 (colon carcinoma), A549 (non small lung carcinoma), MCF-7 (breast), Bel7402 (hepatocellulor carcinoma), BGC-823 (stomach adenocarcinoma), and MV3 (melanoma). Table 2 summarized the results from the experiment results by using two human melanoma cell lines, MV3 and M14, two mouse melanoma cell lines, B16 and B16-BL6, and three human glioma cell lines, TJ899, SHG-44 and TJ905.

A short description of data set [2]: Solubility in 10% v/v propylene glycol. The format is physicochemical. Particulars: 10% v/v propylene glycol aqueous solution, aqueous with cosolvent or surfactant or cyclodextrin, thermodynamic from solid, ambient conditions, stirred 5 hours, read-out: Solubility, Concentration. The protocol:
The potential of temozolomide esters used as topical and transdermal prodrugs is first proven through studies of their solubility. That is a decreased trend of solubility in an aqueous solution with increase of the length of the ester hydrocarbon alkyl chain of the temozolomide esters. It is clear the solubility constantly decreases from the methyl ester to the octyl ester, while temozolomide itself is 3.0 mg/ml similar to that of the methyl ester. […] Similarly to the esters, the solubility of the temozolomide amide products in the aqueous solution is considerably lower than that of temozolomide.
The solubility of temozolomide and the temozolomide esters was determined in 10% v/v propylene glycol by stirring an excess of the solid products at room temperature for 5 hours. The mixtures were then filtered, diluted with sample solvent and analysed using HPLC.

In another data set the test system is BGC-823 (human stomach). Kind of data set: In vitro tumour cell growth inhibition (MTT), BGC-823. Particulars: Table 1 experiment, 96 h. Format: cell-based. The protocol:
as §1, §2, §3
The IC50 was calculated from the curve of the tested compound concentrations against the inhibition rate of the tumour cells. […]

Molecules are shown by their SMILES. In brackets after ≈: the same amount, converted by molar mass.

As to `CCCCCCOC(=O)c1ncn2c(=O)n(C)nnc12` [temozolomide hexyl ester, Hexyl 3,4-dihydro-3-methyl-4-oxoimidazo[5,1-d]-1,2,3,5-tetrazine-8-carboxylate], the logP in data set [1] worked out at 2.56. Besides, the results for the IC50 in the data set with M14 (human melanoma) and in the data set on BGC-823 (human stomach) were > 100 µg/mL and > 19.5 µg/mL, respectively. For the same compound, the solubility at 5 h in data set [2] worked out at 400 µg/mL (≈ 1430 µM).
